The source of these data is US20050054620A1, “Paricalcitol as a chemotherapeutic agent” (priority 2003, published 2005).

In one series the test system is HL-60 cells. Briefly: Cell cycle analysis by flow cytometry. It counts as cell-based, human. Conditions: 10^−7M, 72 hr. The procedure:
For cell cycle analysis, cells were exposed to 10^−7M 1,25(OH)2D3, 10^−7M paricalcitol or vehicle control for either 3 or 4 days. Total cells, both in suspension and adherent, were collected, washed, suspended in cold PBS. Then cells were fixed in 75% chilled methanol and stained with propidium iodine. Cell cycle status was analyzed on a Becton Dickinson Flow Cytometer.
Cell cycle analysis was performed as follows: after treatment of 5×10^4 of cells with a selected compound, cells were collected, washed and suspended in cold PBS. Cells were fixed in chilled 75% methanol and stained with propidium iodine. Cell cycle status was analyzed on a Becton Dickinson Flow Cytometer used standart protocols.

The test system of series [1] is mononuclear bone marrow cells from VDR knock-out (VDR-KO) mice. The series is described as follows: Colony-forming assay in methylcellulose, VDR knock-out mice. The conditions noted are these: 10^−8 M. Type of series: cell-based. The source says:
In FIG. 6D, colony formation by mononuclear bone marrow cells from VDR knock-out (VDR-KO) and wild type (WT) mice is shown. Mononuclear cells were obtained from femoral bone marrow plugs and grown in methylcellulose culture media with either paricalcitol (10^−8M) or diluant. Colonies were counted on day 10 of culture. The number of total colonies (average) were 87 (control) and 66 (paricalcitol 10^−8M) in wild type mice, and 110 (control) and 122 (paricalcitol 10^−8M) in VDR-KO mice. The percentage of macrophage, granulocyte and mixed granulocyte/macrophage colonies are shown. Triplicate wells for each mouse and a total of three KO and three WT mice were studied. G, granulocyte colonies; G/M mixed granulocyte/macrophage colonies; M, macrophage colonies.
The VDR KO Mouse and Colony-Forming Assay was performed as follows. VDR KO mice were generated and genotypes were determined by Southern Blot Analysis as described previously (O'Kelly et al., supra, 2002). For experiments using VDR KO mice, their wild-type (WT) littermates were used as controls. Mice were killed by cervical neck dislocation. Bone marrow was flushed out of isolated femurs with (a-MEM; Gibco BRL, Grand Island, N.Y., USA) including 10% FCS using a 26-gauge needle. Isolated spleens were injected with DMEM (Gibco BRL) plus 10% FCS and crushed with forceps to release cells. Mononuclear cells from bone marrow or spleen were separated by Ficoll-Hypaque density centrifugation (Amersham Pharmacia, Uppsala, Sweden). Resuspended mononuclear bone marrow cells (2×10^4 cells/ml) and growth factors were added 1:10 to methylcellulose medium M3234 (StemCell Technologies Inc., Vancouver, British Columbia, Canada) to yield a final concentration of 1% methylcellulose, 30% FCS, 1% BSA, 10^-4M mercaptoethanol, and 2 mM L-glutamine as described previously (19). Cells were plated in six-well plates in a volume of 1 ml and incubated at 37° C. in a humidified atmosphere containing 5% CO2. Colonies were counted after 2 weeks. Colony type was established by morphology; and to ensure accurate determination, representative colonies were plucked from the plates, centrifuged onto slides, stained with Wright-Giemsa stain and examined by light microscopy.

For series [2], the system named is U937 cells expressing PML-RARA (PR9). The series is described as follows: CD14 expression by flow cytometry, PR9 cells with zinc. Type of series: cell-based, human. The conditions noted are these: paricalcitol 0.01 μM; 3 days; compared to PR9 without zinc. Here is the method:
(A) NB-4 myeloid leukemia cell lines were treated with paricalcitol (0.1 μM) and/or arsenic trioxide (0.6 μM) for 3 days. Control cells were treated with vehicle alone. Cell lysates were made and used for Western blot which was probed sequentially with antibodies to RARA to detect the fusion protein PML-RARα. (B) U937 cells were stably transfected with either the control MT vector (U937-PMT) or the PML-RARα cDNA under the control of the Zn2^+-inducible murine metallothionein 1 promoter (PR9). Cells were treated either with (+) or without (−) Zn for 2 days. Paricalcitol and/or arsenic trioxide of the indicated doses were added to the cells. Cell lysates were harvested and used for Western blot which was probed with antibodies to RARα to detect PML-RARα fusion protein ([…]). (C) U937-PMT and PR9 cells were treated either with or without Zn and with paricalcitol, and/or arsenic trioxide as indicated for 3 days, and CD14 expression was measured by flow cytometry.
Cell lines used in this study were obtained from American Type Culture Collection (Rockville, Md.) and were maintained according to their recommendations. Myeloid leukemia cell lines (HL-60, NB-4, THP-1, U937), lymphoma cell lines (Raji, Ramos, Daudi, Jurkat, Jeko-1, JUDHL), myeloma cell lines (RPMI-8226, ARH-77, NCI-H929), ovarian cancer cell lines and PC-3 prostate cell line were grown in RPMI 1640 with 10% FCS. […]
(In flow cytometry, cells or beads pass a laser one at a time.)

The subject of another series is 24-hydroxylase mRNA. Briefly: RT-PCR of 24-hydroxylase mRNA, spleen mononuclear cells of VDR knock-out mice. Conditions: cells from VDR−/− mice; 10^−8 M. It counts as cell-based.
For series [3] the following is noted: humans, cited from earlier work.
A further series has as its system ARH-77 myeloma cells. Briefly: MTT assay. It counts as cell-based, human.
Another series relates to NCI-H929 cells. The series is described as follows: Western blot of cell lysates. It counts as cell-based, human. Here is the method: Western blot analysis was used to determine the levels of proteins involved in cell cycle and differentiation. […] After centrifugation at 15,000×g for 15 min at 4° C., the suspension was collected. Protein concentrations were quantitated using the Bio-Rad assay (Bio-Rad Labolatories, Hercules, Calif.). […] The blots were developed using the Supersignal West Pico Chemiluminescent Substrate Kit (Pierce, Rockford, Ill.). In FIG. 3C, NCI-H929 cells were treated with either paricalcitol (10^−7M) or 1,25(OH)2D3 (10^−7M) and cell lysates were prepared after 72 hrs. Cell lysates were used for Western blot analysis and probed sequentially with antibodies to p27KIP1, Bcl-2 and Bax. Control cells were treated with vehicle alone. Amount of protein was normalized by comparison to the amount of GAPDH. […] The Bcl-2 and Bax antibodies were obtained from Santa Cruz Biotechnology Inc., Santa Cruz, Calif.
A general note: Immunoblotting shows a protein as a band on a membrane.

For series [4] the following is noted: humans, cited from earlier work. This is another data set of the same source.

Description for 24-hydroxylase mRNA: Expression of 24 hydroxylase mRNA was analysed by RT-PCR. The amounts of mRNA were normalized by comparison to 18S RNA. For the PCR analysis, RNA extraction and reverse transcription were done by TRIzole (Invitrogen, Carlsbad, Calif.) and reverse transcriptase (Promega, Madison, Wis.). A twenty-microliter volume of cDNA was prepared from 1 μg of RNA. cDNAs were amplified by PCR with specific primers for 24-hydroxylase and 18S. The cycle number was 25 for 18S and 32 for 24-hydroxylase. PCR product was separated on a 2% agarose gel, stained with ethidium bromide, and photographed.

With `C[C@H](/C=C/[C@H](C)C(C)(C)O)[C@H]1CC[C@H]2/C(=C/C=C3C[C@@H](O)C[C@H](O)C3)CCC[C@]12C` [paricalcitol, 19-nor-1,25, (OH)2D3], in the series with HL-60 cells, the “decrease of cells in S phase” value was determined as 33%, the “increase of cells in G0/G1 phase” value turned out to be 16% and the “increase of cells in G2/M phase” value turned out to be 17%. Besides, the “number of total colonies (average)” value in series [1] (VDR knock out mice, control 110) was found to be 122. Further, the “percentage of granulocyte colonies” value in series [1] (VDR knock-out mice, control 13±3%) stood at 13±4%. Besides, the “percentage of macrophage colonies” value in series [1] (VDR knock-out mice, control 30±8%) was 25±5%. Besides, the “percentage of mixed colonies” value in series [1] (VDR knock-out mice, control 56±10%) was 61±8%. Moreover, in series [2], the “differentiation (CD14) of PR9 cells cultured with zinc” value was “partially blocked”. The “induction of 24-hydroxylase” value in the series on 24-hydroxylase mRNA is “not inducible”. The dose safely given entry in series [3] was “up to 16.8 mg”. In addition, in series [3] (compared with 1,25(OH)2D3), the hypercalcemia result was “less likely to cause hypercalcemia”. For the same compound, the antiproliferative effect result in the series on ARH-77 myeloma cells was “somewhat less than the effect on NCI-H929 cells”. Besides, the “expression of Bcl-2 and p27^KIP1” value in the series on NCI-H929 cells (0.01 μM each, 3 days) is recorded as “down-regulated”. In the series on NCI-H929 cells (10^−7M, 72 hrs), the “decrease of Bcl-2 protein level” value is listed as “about 40%” and the “effect on levels of Bax” value is on record as “did not affect”. Moreover, in the series on NCI-H929 cells (10^−7M, 96 hrs), the “effect on levels of p21WAF1” value is on record as “little effect” and the “increase of p27KIP1 expression” value is on record as “about 3 fold”. For the same compound, the peak serum levels in series [4] is 1850 pg/mL. Also, in series [4] (paricalcitol compared with 1,25(OH)2D3), the serum half-life entry is given as “similar”.
